Assay results as given in patent US20160296628A1, “NANOPARTICLE DELIVERY SYSTEMS FOR CYTOLYTIC PEPTIDE PRODRUGS” (Washington University, priority 2015, published 2016).

Assays:
[1] = system: 2F2B endothelial cells; experiment: XTT cytotoxicity assay, 2F2B endothelial cells; assay type: cell-based; details: 3 hours at 37° C., FIGS. 1A-1C
Protocol: (§1) The conjugate was compared to melittin and to melittin coupled only to linker in order to determine toxicity to endothelial cells and macrophages, as well as hemolysis. For assessment of cytotoxicity, 2F2B endothelial cells (CRL-2168; American Type Culture Collection, Manassas, Va.) or RAW 264.7 macrophages (TIB-71; American Type Culture Collection, Manassas, Va.) were plated in a 96-well plate at a concentration of 15,000 cells/well and allowed to attach overnight. The peptide of interest was then added and incubated with the cells for 3 hours at 37° C. Following this incubation, the agent of interest was removed, cells were washed with phosphate-buffered saline, and cell viability was determined by XTT assay (Biotium, Hayward, Calif.). This assay measures the ability of cellular oxidoreductases to reduce the XTT reagent, resulting in a colored product. Briefly, cells were incubated with the activated XTT reagent for 3 hours at 37° C. with shaking at 200 rpm. The absorbance of each well at 450 nm was then measured using a Bio-Rad Model 550 plate reader (Bio-Rad Laboratories, Hercules, Calif.) with reference wavelength 630 nm.
(§2) To assess the impact of proteolytic cleavage on conjugate cytotoxicity and hemolytic activity, we repeated these experiments following cleavage of the conjugate by matrix metalloproteinase-9 (MMP-9). […]

[2] = system: RAW 264.7 macrophages; experiment: XTT cytotoxicity assay, RAW 264.7 macrophages; assay type: cell-based; details: 3 hours at 37° C., FIGS. 1A-1C
Protocol: as §1, §2

[3] = system: red blood cells; experiment: Hemolysis of red blood cells; assay type: cell-based, New Zealand white rabbits
Protocol: For hemolysis measurements, citrated whole blood was collected from New Zealand white rabbits and separated by centrifugation at 2000 rpm for 10 minutes. Red blood cells were washed five times with Dulbecco's phosphate buffered saline and stored at 4° C. until use. In each assay, the peptide of interest was added to 1×10^7 red blood cells in PBS and incubated at 37° C. for one hour. Afterwards, intact red blood cells were pelleted by centrifugation at 2000 rpm for 5 minutes and absorbance of the supernatant at 450 nm was measured using a Bio-Rad Model 550 plate reader (Bio-Rad Laboratories, Hercules, Calif.) with reference wavelength 630 nm To determine percent lysis, absorbance readings were normalized to lysis with 0.1% Triton™ X-100.
To assess the impact of proteolytic cleavage on conjugate cytotoxicity and hemolytic activity, we repeated these experiments following cleavage of the conjugate by matrix metalloproteinase-9 (MMP-9). Recombinant MMP-9 (R&D Systems, Minneapolis, Minn.) was activated by incubation with 1 mM 4-aminophenylmercuric acetate (APMA; Sigma-Aldrich, St. Louis, Mo.) at 37° C. for 2 hours. Free APMA was removed by dialysis against TCNBZ buffer (150 mM NaCl, 50 mM Tris, 10 mM CaCl2, 10 μM ZnCl2, 0.05% (w/v) Brij-35, pH 7.75) for 2 hours using a Slide-A-Lyzer MINI Dialysis Device, 2K MWCO (Thermo Scientific, Waltham, Mass.) with a dialysate change at 1 hour. […]

[4] = system: B16F10 melanoma cells; experiment: XTT cytotoxicity assay, B16F10 melanoma cells; assay type: cell-based; details: B16F10, MMP-9 added to culture media
[5] = Peptide loading onto perfluorocarbon nanoparticles; assay type: physicochemical; details: 1 mM peptide in phosphate-buffered saline, 4° C., 1 hour
Protocol: Conjugate-loaded nanoparticles were formulated by mixing known amounts of conjugate to non-targeted perfluorocarbon nanoparticles prepared in Example 1A and compared to melittin loading. Both melittin and the conjugate were produced by solid-phase peptide synthesis (melittin: GenScript, Piscataway, N.J.; conjugate: American Peptide Company, Sunnyvale, Calif.). Perfluorocarbon nanoparticles were incubated with 1 mM melittin or conjugate in phosphate-buffered saline at 4° C. for 1 hour. Nanoparticles were then isolated by centrifugation at 5,000 rpm for 15 minutes. The supernatant was removed and nanoparticles were washed three times with phosphate-buffered saline to remove free peptide.

Structure (SMILES) | change of cytolytic activity / cytotoxicity relative to melittin [1] | change of cytolytic activity / cytotoxicity relative to melittin [2] | hemolytic activity after cleavage by MMP-9 ([3]; conjugate 200 μM cleaved with 20 nM MMP-9, 3 hours at 37° C.) | change of cytolytic / hemolytic activity relative to melittin ([3]; rabbit red blood cells in PBS, 37° C., one hour, FIGS. 1A-1C) | cytotoxicity to melanoma cells [4] | loading, peptides per nanoparticle [5]
CC[C@H](C)[C@H](NC(=O)CNC(=O)[C@H](CCC(N)=O)NC(=O)CNC(=O)[C@H](C)NC(=O)[C@@H](NC(=O)CNC(=O)[C@H](CCC(N)=O)NC(=O)[C@@H]1CCCN1C(=O)CNC(=O)[C@H](C)NC(=O)[C@H](CCC(=O)O)NC(=O)[C@@H]1CCCN1C(=O)[C@H](CC(=O)O)NC(=O)[C@H](C)NC(=O)[C@H](CCC(=O)O)NC(=O)[C@H](C)NC(=O)[C@H](CC(=O)O)NC(=O)[C@H](C)NC(=O)[C@H](CCC(=O)O)NC(=O)[C@H](C)NC(=O)[C@H](CCC(=O)O)NC(=O)[C@@H]1CCCN1C(=O)[C@H](CCC(=O)O)NC(=O)[C@@H]1CCCN1C(=O)[C@H](C)NC(=O)[C@@H]1CCCN1C(=O)[C@H](CCC(=O)O)NC(=O)[C@@H]1CCCN1)[C@@H](C)CC)C(=O)NCC(=O)N[C@@H](C)C(=O)N[C@H](C(=O)N[C@@H](CC(C)C)C(=O)N[C@@H](CCCCN)C(=O)N[C@H](C(=O)N[C@@H](CC(C)C)C(=O)N[C@H](C(=O)N[C@H](C(=O)NCC(=O)N[C@@H](CC(C)C)C(=O)N1CCC[C@H]1C(=O)N[C@@H](C)C(=O)N[C@@H](CC(C)C)C(=O)N[C@H](C(=O)N[C@@H](CO)C(=O)N[C@@H](Cc1c[nH]c2ccccc12)C(=O)N[C@H](C(=O)N[C@@H](CCCCN)C(=O)N[C@@H](CCCNC(=N)N)C(=O)N[C@@H](CCCCN)C(=O)N[C@@H](CCCNC(=N)N)C(=O)N[C@@H](CCC(N)=O)C(=O)N[C@@H](CCC(N)=O)C(N)=O)[C@@H](C)CC)[C@@H](C)CC)[C@@H](C)O)[C@@H](C)O)C(C)C)C(C)C [Pro-P2] | reduced melittin cytotoxicity and hemolytic activity by at least two orders of magnitude | reduced melittin cytotoxicity and hemolytic activity by at least two orders of magnitude | restored | reduced melittin cytotoxicity and hemolytic activity by at least two orders of magnitude | substantially cytotoxic | 
CC[C@H](C)[C@H](NC(=O)CN)C(=O)NCC(=O)N[C@@H](C)C(=O)N[C@H](C(=O)N[C@@H](CC(C)C)C(=O)N[C@@H](CCCCN)C(=O)N[C@H](C(=O)N[C@@H](CC(C)C)C(=O)N[C@H](C(=O)N[C@H](C(=O)NCC(=O)N[C@@H](CC(C)C)C(=O)N1CCC[C@H]1C(=O)N[C@@H](C)C(=O)N[C@@H](CC(C)C)C(=O)N[C@H](C(=O)N[C@@H](CO)C(=O)N[C@@H](Cc1c[nH]c2ccccc12)C(=O)N[C@H](C(=O)N[C@@H](CCCCN)C(=O)N[C@@H](CCCNC(=N)N)C(=O)N[C@@H](CCCCN)C(=O)N[C@@H](CCCNC(=N)N)C(=O)N[C@@H](CCC(N)=O)C(=O)N[C@@H](CCC(N)=O)C(N)=O)[C@@H](C)CC)[C@@H](C)CC)[C@@H](C)O)[C@@H](C)O)C(C)C)C(C)C [melittin] |  |  |  |  |  | approximately 16,000 peptides per nanoparticle
